This is an account of results in patent publication US9649294B2, “Glucagon receptor antagonist compounds, compositions containing such compounds and methods of use” (Merck Sharp & Dohme Corp., priority 2013, dated 2017).

The structures appear in SMILES notation. pIC50: −log10 of the molar value.

The target of data set [1] is T1, human glucagon receptor (Homo sapiens, UniProt P47871).
T1 construct: expressed in transfected cells; host or cells: CHO cells
Briefly: Glucagon receptor binding assay (125I-glucagon, SPA, CHO cell membranes). Particulars: CHO cell membranes expressing cloned human glucagon receptor. The method, then:
A stable CHO (Chinese hamster ovary) cell line expressing cloned human glucagon receptor was maintained as described (Chicchi et al. J Biol Chem 272, 7765-9(1997); Cascieri et al. J_Biol Chem 274, 8694-7(1999)). […] After 4-12 hours incubation at room temperature, the radioactivity bound to the cell membranes was determined in a radioactive emission detection counter (Wallac-Microbeta). Data was analyzed using the software program Prism from GraphPad. IC50 values were calculated using non-linear regression analysis assuming single site competition.

The target in data set [2] is T1, human glucagon receptor. Briefly: Inhibition of glucagon-stimulated intracellular cAMP formation. Particulars: CHO cells expressing human glucagon receptor; glucagon 250 pM. It counts as cell-based. The method, then: Exponentially growing CHO cells expressing human glucagon receptor were harvested with the aid of enzyme-free dissociation media (Specialty Media), pelleted at low speed, and re-suspended in the Cell Stimulation Buffer included in the Flash Plate cAMP kit (New England Nuclear, SMP0004A). The adenylate cyclase assay was setup as per manufacturer instructions. Briefly, compounds were diluted from stocks in DMSO and added to cells at a final DMSO concentration of 5%. Cells prepared as above were preincubated in flash plates coated with anti-cAMP antibodies (NEN) in presence of compounds or DMSO controls for 30 minutes, and then stimulated with glucagon (250 pM) for an additional 30 minutes. The cell stimulation was stopped by addition of equal amount of a detection buffer containing lysis buffer as well as ^125I-labeled cAMP tracer (NEN). After 3 hours of incubation at room temperature the bound radioactivity was determined in a liquid scintillation counter (TopCount-Packard Instruments). Basal activity (100% inhibition) was determined using the DMSO control while 0% inhibition was defined at the amount of pmol cAMP produced by 250 pM glucagon.
(Cyclic AMP is a second messenger, typically raised through Gs and lowered through Gi signalling.)

Data set [3] is described as follows: Pharmacokinetic study in mouse. It counts as in vivo, hGCGR mice. The conditions noted are these: for MRT / half-life: PK study (IV 1 mg/kg, oral 2 mg/kg); for MRT: read-out: MRT, mean residence time; for half-life: read-out: T1/2, terminal half-life (converted). The procedure:
(§1) Intravenous (IV) PK studies were conducted at a dose of 1 mg/kg in hGCGR mice and rats and 0.5 mg/kg in dogs and rhesus monkeys. The IV doses were formulated in ethanol:PEG400:water (20:30:50 v/v/v). Oral PK studies were conducted at a dose of 2 mg/kg in mice, rats, dogs and monkeys. The oral doses were formulated in ethanol:PEG400:water (20:30:50 v/v/v) for dosing in mice and rats and in 0.5% methylcellulose in dogs and monkeys.
(§2) Plasma was prepared for analysis by protein precipitation with acetonitrile. Plasma concentrations were determined by LC-MS/MS using ABI Sciex API 4000 or 5000 mass spectrometers operated in atmospheric pressure chemical ionization mode with multiple-reaction monitoring.
(§3) Pharmacokinetic parameters were calculated with a non-compartmental model using Watson software (Watson Software, Thermo Fisher, Waltham, Mass., USA). The area under the plasma concentration versus time curve from 0 to 24 h (AUC0-24) was determined using linear trapezoidal interpolation in the ascending slope and logarithmic trapezoidal interpolation in the descending slope. The portion of the AUC from the last measurable concentration to infinity ([…]) was estimated by Ct/kel, where Ct represents the last measurable concentration and kel is the elimination rate constant. The latter was determined from the concentration versus time curve at the terminal phase by linear regression of the semilogarithmic plot. Oral bioavailability (F) was estimated as the AUC0-inf ratio following oral and i.v. administration normalized for differences in dose. The apparent half-life (t1/2) was estimated from the slope of the terminal phase of the log plasma concentration-time curve. MRT, the average time a compound molecule resides in the body, is calculated with the following equation: MRT=AUMC/AUC. In this equation AUMC is the area under the first moment curve and is determined as the area under the curve of a plot of the product of concentration and time versus time. AUC is equal to AUC0-inf.

A short description of data set [4]: Pharmacokinetic study in rat. It counts as in vivo, rats. The conditions noted are these: for MRT / half-life: PK study (IV 1 mg/kg, oral 2 mg/kg); for MRT: read-out: MRT, mean residence time; for half-life: read-out: T1/2, terminal half-life (converted). The method, then:
as §1, §2, §3

Data set [5] can be described thus: Pharmacokinetic study in dog. The conditions noted are these: for MRT / half-life: PK study (IV 0.5 mg/kg, oral 2 mg/kg); for MRT: read-out: MRT, mean residence time; for half-life: read-out: T1/2, terminal half-life (converted). It is filed as in vivo, dogs. The method, then:
as §1, §2, §3

A short description of data set [6]: Pharmacokinetic study in rhesus monkey. It counts as in vivo, rhesus monkeys. The conditions noted are these: for MRT / half-life: PK study (IV 0.5 mg/kg, oral 2 mg/kg); for MRT: read-out: MRT, mean residence time; for half-life: read-out: T1/2, terminal half-life (converted). The procedure: as §1, §2, §3

T1 sequence (P47871 26-477): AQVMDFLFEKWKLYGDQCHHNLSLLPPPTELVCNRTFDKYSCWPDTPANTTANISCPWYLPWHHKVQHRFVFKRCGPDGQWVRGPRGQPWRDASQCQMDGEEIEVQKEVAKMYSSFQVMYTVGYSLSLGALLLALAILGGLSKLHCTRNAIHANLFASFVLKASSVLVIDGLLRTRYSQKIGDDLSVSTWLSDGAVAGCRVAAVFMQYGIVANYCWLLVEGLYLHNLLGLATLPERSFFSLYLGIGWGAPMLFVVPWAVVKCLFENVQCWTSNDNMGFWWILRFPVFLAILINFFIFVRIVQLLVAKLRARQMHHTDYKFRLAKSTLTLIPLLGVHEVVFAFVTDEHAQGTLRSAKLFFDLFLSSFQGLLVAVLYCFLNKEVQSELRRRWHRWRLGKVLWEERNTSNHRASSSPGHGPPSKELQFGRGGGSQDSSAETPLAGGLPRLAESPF

The pIC50 is the IC50 on a negative log10 scale, so that one unit is a factor of ten. The term clearance denotes the volume of plasma or blood freed of the substance per unit of time. In general, MRT refers to a mean duration of stay, worked out from the concentration-time curve. As usually defined, the bioavailability is the share of a dose that reaches the circulation, judged against a reference dose that is usually intravenous. For the compound `CCC[C@H](c1ccc(C(=O)NCCC(=O)O)cc1)[C@H](c1ccc(OC(F)(F)F)cc1)c1c[nH]c2c(F)cc(Cl)cc12` [Example 1, 3-(4-((1R,2S)-1-(5-Chloro-7-Fluoro-1H-Indol-3-yl)-1-(4-(Trifluoromethoxy)Phenyl)Pentan-2-yl)Benzamido)Propanoic Acid], the pIC50 in data set [1] is 9.62; in data set [2] it was 7.72. Further, the results for the “MRT compared to MK-3577” value in data set [3] and in data set [4] were roughly 4.5 fold and “over 3 fold”, respectively. For the same compound, the “T1/2 longer compared to MK-3577” value in data set [3] was roughly 2.9 fold; in data set [4], roughly 1.5 fold; in data set [5] it was “ca. 3.3 fold”; in data set [6] it was roughly 2.2 fold. Besides, the clearance is 0.21 L/h/kg in data set [3] (hGCGR, plasma, IV 1 mg/kg, read-out: Clp, plasma clearance); 1.08 L/h/kg in data set [4] (plasma, IV 1 mg/kg, read-out: Clp, plasma clearance); 0.0378 L/h/kg in data set [5] (plasma, IV 0.5 mg/kg, read-out: Clp, plasma clearance); 0.18 L/h/kg in data set [6] (rhesus monkey, plasma, IV 0.5 mg/kg, read-out: Clp, plasma clearance). Also, the Vd in data set [3] (hGCGR, plasma, IV 1 mg/kg, read-out: Vdss, volume of distribution at steady state) turned out to be 2.2 L/kg; in data set [4] (plasma, IV 1 mg/kg, read-out: Vdss, volume of distribution at steady state), 3.2 L/kg; in data set [5] (plasma, IV 0.5 mg/kg, read-out: Vdss, volume of distribution at steady state) it was 0.72 L/kg; in data set [6] (rhesus monkey, plasma, IV 0.5 mg/kg, read-out: Vdss, volume of distribution at steady state), 2 L/kg. The MRT in data set [3] (hGCGR, plasma) came out at 10 h; in data set [4] (plasma), 2.9 h; in data set [5] (plasma), 20 h; in data set [6] (rhesus monkey, plasma) it was 11 h. For the same compound, the half-life in data set [3] (hGCGR, plasma) is 8.2 h; in data set [4] (plasma), 2.2 h; in data set [5] (plasma), 16 h; in data set [6] (rhesus monkey, plasma), 11 h. In addition, the bioavailability in data set [3] (hGCGR, plasma, oral 2 mg/kg vs IV 1 mg/kg, read-out: F, oral bioavailability) stood at 87%; in data set [4] (plasma, oral 2 mg/kg vs IV 1 mg/kg, read-out: F, oral bioavailability) it was 76%; in data set [5] (plasma, oral 2 mg/kg vs IV 0.5 mg/kg, read-out: F, oral bioavailability), 30%; in data set [6] (rhesus monkey, plasma, oral 2 mg/kg vs IV 0.5 mg/kg, read-out: F, oral bioavailability) it was 47%. The “Oral AUCnorm(0-∞)” value amounted to 8.0 µM·kg·h/mg in data set [3] (oral 2 mg/kg, dose-normalized); 1.2 µM·kg·h/mg in data set [4] (oral 2 mg/kg, dose-normalized); 16 µM·kg·h/mg in data set [5] (oral 2 mg/kg, dose-normalized); 6 µM·kg·h/mg in data set [6] (oral 2 mg/kg, dose-normalized). The “MRT longer compared to MK-3577” value in data set [5] is listed as “ca. 3.8 fold”; in data set [6], roughly 3.4 fold.
As to `CCC[C@H](c1ccc(C(=O)NCCC(=O)O)cc1)[C@H](c1ccc(Cl)cc1)c1c[nH]c2c(F)cc(C)cc12` [MK3577, reference compound], the MRT was 2.2 h in data set [3] (hGCGR, plasma); 0.9 h in data set [4] (plasma); 5.2 h in data set [5] (plasma); 3.2 h in data set [6] (rhesus monkey, plasma). Besides, the half-life was 2.8 h in data set [3] (hGCGR, plasma); 1.4 h in data set [4] (plasma); 4.9 h in data set [5] (plasma); 5.1 h in data set [6] (rhesus monkey, plasma).
